Measured values from patent US20110123623A1, “RHAMNOLIPID MECHANISM” (priority 2009, published 2011).
Several values for one entry are separate records, joined by “and”; a condition that tells them apart may be missing. Equal values may be shown once.

Legend:
in vivo = details: female, Swiss-Webster, mouse, iv
Description: (§1) Maximum tolerated doses of di-rhamnolipid W3CTS were administered intravenously in female Swiss-Webster mice.
(§2) Female Swiss-Webster mice obtained from the Houston, Tex. site Harlan Sprague Dawley, Inc were used in the study. All mice were divided into 6 groups. The vehicle and Di-rhamnolipid W3CTS were administered as an intravenous bolus, via tail vein, beginning with lowest dose level (75 mg/kg). […] In this study, the maximum tolerated dose of di-rhamnolipid W3CTS in female Swiss-Webster mice was 120 mg/kg. Three mice (LD50) of the next higher dose tested (135 /mg/kg) died immediately upon administration.

[1] = test system: female Swiss-Webster mice; assay: in vivo; details: mouse
Description: as §1, §2

ICR male mice = assay: Immunosuppression (humoral); assay type: in vivo, mouse
From the text: (§3) Immunostimulation (humoral) in BALB/c male mice and Immunosuppression (humoral)^(2,7) on ICR male mice were negative.

[2] = test system: Swiss-Webster female mice; assay: Acute cutaneous irritation, mouse ear assay (Part A); assay type: in vivo; details: single topical application, up to 24 hours
Description: (§4) Effects of Di-rhamnolipid W3CTS on TPA/pyr induced acute inflammation in the ears of Swiss-Webster female mice.
(§5) The aim of this study was two-fold. In Part A the potential of a single topical application of W3CTS to cause acute cutaneous irritation (up to 24 hours) was measured in a mouse ear assay system. […] The aim of Part B was to determine the effects of a single topical administration of W3CTS on acute dermal inflammation induced by TPA/pyr, Part B was designed to differentiate the ability of Di-rhamnolipid W3CTS at concentration 1 mg/ml to prevent, inhibit or reverse induced ear inflammation.

[3] = Storage stability of Di-rhamnolipid W3CTS; assay type: physicochemical; details: kept under Nitrogen in bottles at room temperature, 10 years
From the text: Di-rhamnolipid W3CTS has been isolated from Pseudomonas aeruginosa. Production of >98.5% pure Di-rhamnolipid W3CTS is a very expensive procedure; thus, the goal is to produce the clinically accepted purity of the rhamnolipid that has a long shelf life.

[4] = test system: normal Sprague-Dawley rats; assay: Full-thickness burn wounds, topical treatment; assay type: in vivo, rat
Description: The effects of Di-rhamnolipid W3CTS on full-thickness burn wounds in normal Sprague-Dawley rats.
Di-rhamnolipid W3CTS was prepared in a eucerine ointment applied topically on full-thickness burn wounds in normal Sprague-Dawley rats covering 5% of the whole skin area. The rate of wound closure was measured over the period of 45 days. The collagen content was evaluated microscopically, by performing densitometric analysis on Verhoeff's stained histopathological slides of wound biopsies taken at the end of 45th day of di-rhamnolipid treatment. The treatment of full thickness-burn wounds covering 5% of the whole body skin area with topical applications (2 per day) of 0.1% di-rhamnolipid in eucerine ointment accelerated the closure of wounds on day 21 of the treatment by 32% compared to the control (p<0.05). […] The results of this study raise the possibility of potential efficacy of di-rhamnolipid in accelerating normal wound healing and perhaps in overcoming defects associated with healing failure in chronic wounds.

[5] = Neonatal human fibroblast cell culture (proliferation, viability, apoptosis); assay type: cell-based; details: human, neonatal human fibroblasts; 100 μg/ml; presence of serum; read-out: inhibition of viability of fibroblasts
Description: (§6) At the same concentration of 100 μg/ml W3CTS increased apoptosis by 72%.

[6] = test system: neonatal human fibroblasts; assay: as above; assay type: cell-based
Description: as §6

BALB/c male mice = assay: Immunostimulation (humoral); assay type: in vivo, mouse
From the text: as §3

female ICR mice [7] = assay: Immunostimulation (cellular): oxazolone-induced delayed type hypersensitivity; assay type: in vivo, mouse; details: oxazolone-induced DTH
From the text: Immunostimulation (cellular): Oxazolone-induced delayed type hypersensitivity of female ICR mice was negative.

[8] = test system: Swiss-Webster female mice; assay: TPA/pyr induced acute dermal ear inflammation (Part B); assay type: in vivo, mouse
Description: as §4, §5
The time of maximal reduction of inflammation was dependent on the time of treatment, with respect to induction. The effect of Di-rhamnolipid W3CTS was moderate (up to 32% decrease in inflammation) but sustained. […] Post treatment reversed established inflammation by 32% at 11 hours. […] It may be possible to increase the anti-inflammatory effect of Di-rhamnolipid W3CTS by use of a different dose formulation, or by repeated treatments.

psoriatic patients = assay: Physician sponsored treatment of psoriatic patients (PASI); assay type: in vivo, human
From the text: Twelve psoriatic hospital bed patients, and one patient with seborrheic dermatitis and psoriasis, one patient with lichen planus and one with dermatitis cicumscripta unilocullaris as an out clinic patient were recruited as study volunteers.
Abbreviations: PASI=Psoriasis Area Severity Index (Erythema, Infiltration and Scaling); PVP=Psoriasis Vulgaris in Placibus; d=days; m=months; y=years; ster=steroids (treated)

[9] = test system: neonatal human keratinocytes; assay: Neonatal human keratinocyte cell culture (proliferation, viability, apoptosis); assay type: cell-based
Description: On the contrary, Di-rhamnolipid W3CTS in the presence of serum and at high concentration of calcium increased the proliferation and the viability of keratinocytes and decreased the caspase activity. At the concentration of 50 μg/ml, Di-rhamnolipid W3CTS maximally stimulated the proliferation (34%) and the viability of keratinocytes (25%) as compared to control, and decreased the apoptosis (49%).

female ICR mice [10] = assay: Immunosuppression (cellular): oxazolone-induced delayed type hypersensitivity; assay type: in vivo, mouse; details: oxazolone-induced DTH
From the text: Immunosuppression (cellular): Oxazolone-induced delayed type hypersensitivity of female ICR mice was negative.

[11] = 200 μg/ml and 500 μg/ml, causing necrosis

CCCCCCCC(CC(=O)O)OC(=O)CC(CCCCCCC)OC1OC(C)C(O)C(O)C1OC1OC(C)C(O)C(O)C1O (centres unmarked) [Di-rhamnolipid W3CTS]
LD50 at 14 day (in vivo): 135 mg/kg | MTD at 14 day (in vivo): 120 mg/kg | gross abnormalities at necropsy [1]: no gross abnormalities | tail finding, higher dose groups [1]: scabbing and necrosis of tails | Immunosuppression (humoral) (ICR male mice): negative | acute cutaneous irritation (ear erythema) [2]: did not cause acute cutaneous irritation | change of structure on storage [3]: did not change its structure during 10 years | decrease of collagen content in burn wounds vs vehicle ([4]; 0, 1% in eucerine, biopsies at end of 45th day, p<0.05): 47.5% | acceleration of closure of wounds vs control ([4]; 0.1% in eucerine ointment, 2 per day topical, day 21, p<0.05): 32% | wound closure ([4]; 0.1% ointment, day 35): wounds closed in all animals | cytotoxicity at 100 μg/ml [5]: 28% | increase of apoptosis of fibroblasts ([6]; 100 μg/ml, presence of serum): 72% | cell proliferation and viability, fibroblasts [6, 11]: fully inhibited cell proliferation and viability | inhibition at 100 µg/mL ([6]; Homo sapiens, Fibroblast, 100 μg/ml, presence of serum): 46% | Immunostimulation (humoral) (BALB/c male mice): negative | Immunostimulation (cellular) (female ICR mice [7]): negative | decrease in inflammation (overall) ([8]; 1 mg/ml topical, maximal effect): up to 32% | topical anti-inflammatory efficacy ([8]; 1 mg/ml, 1.0% w/v, single topical administration, 24 hours time-course): effective as a topical therapeutic anti-inflammatory agent | inhibition of inflammation, concurrent treatment ([8]; at 6 hours): about 32% | reversal of established inflammation, post treatment ([8]; at 11 hours, given 2 hours after induction): 32% | protective effect, pretreatment ([8]; given one hour prior to induced inflammation): short duration as a protective agent | Psoriasis Area Severity Index After Treatment W3CTS (psoriatic patients; 1.0% eucerin ointment, 15-40 treating days, one patient per line): 0.2 (5×) and 0.3 and 0.4 and 6 and 0.6 (2×) and 1.6 and 0.9 | Psoriasis Area Severity Index Extended Evaluation W3CTS (psoriatic patients; 1 y (year), one patient per line): 1 y = 0 | Psoriasis Area Severity Index Extended Evaluation W3CTS (psoriatic patients; 3 m (months), one patient per line): 3 m = 0 (2×) and 3 m relapse and 3 m = 0.1 | Psoriasis Area Severity Index Before Treatment W3CTS (psoriatic patients; baseline of W3CTS treated lesions, one patient per line): 9.6 (2×) and 8.1 (3×) and 10.8 (4×) and 14.4 and 5.4 and 8.4 | duration free of psoriatic lesions (psoriatic patients; some of the patients): free of psoriatic lesions up to seven years | decrease of apoptosis of keratinocytes ([9]; 50 μg/ml, serum, high calcium): 49% | stimulation of proliferation of keratinocytes vs control ([9]; 50 μg/ml, serum, high calcium): 34% | stimulation of viability of keratinocytes vs control ([9]; 50 μg/ml, serum, high calcium): 25% | cell proliferation and viability, keratinocytes [9, 11]: fully inhibited cell proliferation and viability | proliferation and viability of keratinocytes ([9]; without serum, low calcium, 100 μg/ml, caused necrosis): fully inhibited proliferation and viability | Immunosuppression (cellular) (female ICR mice [10]): negative
